Legend:
liver = details: mice, feeding for 5 days with 0.2% cholic acid; cited from earlier work
[1] = test system: N-Akt tumors (intrahepatic cholangiocarcinoma); experiment: N-Akt intrahepatic cholangiocarcinoma in Apo>hYAP1SA mice, doxycycline-induced hYAP1SA expression in peritumoral hepatocytes; type: in vivo, mouse
Protocol: For intrahepatic delivery of the transposon system (Kang et al., 2011), eight to ten-week-old mice were secured and hydrodynamically injected with 1 μg pCMV/SB11, 4 μg pSBbi-puro-myrAKT-HA, 20 μg of pSBbi-puro-myc-NICD, or 10 μg of cMyc-IRES-NRas via lateral tail vein. For the expression of SB-Cre^ERT2 or inducible Bcl2, 15 μg of pSBbi-puro-Cre^ERT2 or 10 μg of pSBTetON—RH-Flag-Bcl2, respectively, were added to the plasmid mixture. All plasmids were diluted in sterile filtered 0.9% NaCl, and the total volume was adjusted to 10% (in ml) of the total body weight (in grams).
(§1) For conditional deletion of Yap and Taz, tamoxifen was administered for 5 consecutive days, via intraperitoneal injection at a concentration of 1.6 mg/kg in corn oil. In order to activate the expression of TetON-Bcl2 or human YAP expression in Apo>hYAP^1SA mice, 0.2 mg/ml of doxycycline was diluted in filtered sterile drinking water supplemented with 2.5% sucrose and administered ad libido. Doxycycline containing water bottles were protected from light and replaced every other day.
(§2) All quantifications were performed using ImageJ software. Quantification of relative tumor area was done by measuring the tumor area (marked by HA-Akt positive cells in N-Akt model, phospho-ERK expression in Myc-Ras model or S100 expression in melanoma model) and the total area (marked by DAPI). […] We inferred absolute tumor load by multiplying the tumor area by the liver weight of each mouse (absolute tumor load (cm^3)=tumor area (cm)×liver weight (grams).
We next tested whether overexpression of a constitutively active form of YAP (YAP^1SA; this is the YAP variant carrying the mutation Ser127Ala; see description hereinabove), due to mutation of the main Lats1/2 phosphorylation site, is sufficient to recapitulate the tumor regression caused by Lats1/2 deletion. We used transgenic mice that conditionally overexpressed human YAP^1SA in hepatocytes under the control of a doxycycline (Dox) inducible promoter (TetON system) and where the reverse tetracycline transactivator (rtTA) is expressed under the hepatocyte-specific ApoE promoter (hereafter Apo>hYAP^1SA)(Dong et al., 2007). Upon doxycycline feeding, Apo>hYAP^1SA mice induced hepatocyte proliferation and developed liver overgrowth as previously reported (FIG. 10A,B) (Dong et al. 2007). We then induced N-Akt tumors in Apo>hYAP^1SA mice and induced hYAP^1SA expression after 4 weeks of tumor development by adding doxycycline to their drinking water (FIG. 5A). As expected, YAP protein levels increased in doxycycline treated Apo>hYAP^1SA mice but not in non-treated Apo>hYAP^1SA mice or in doxycycline treated C57BL/6 mice (FIG. 10C). […]

[2] = test system: NRAS-mutant metastatic melanoma cells in the liver; experiment: NRas+/INK4a-/- melanoma liver metastases in Apo>hYAP1SA mice, doxycycline-induced hYAP1SA expression; type: in vivo, mouse; details: Apo>YAP1SA mice injected with 10.000 melanoma cells; 2 weeks after YAP activation by doxycycline in drinking water
Protocol: For intrahepatic seeding of tumor cells, mice were hydrodynamically injected with 10.000 mouse melanoma cells (NRas^+/INK4a^−/−) diluted in sterile minimal essential medium (MEM), adjusted to 10% (in ml) of total body weight (in grams). All injected mice were monitored daily and sacrificed in groups at appropriate time points. All experimental and control groups contained 5 to 10 mice.
as §1
All quantifications were performed using ImageJ software. Quantification of relative tumor area was done by measuring the tumor area (marked by HA-Akt positive cells in N-Akt model, phospho-ERK expression in Myc-Ras model or S100 expression in melanoma model) and the total area (marked by DAPI). […] We inferred absolute tumor load by multiplying the tumor area by the liver weight of each mouse (absolute tumor load (cm^3)=tumor area (cm)×liver weight (grams). […]

N-Akt tumors = experiment: Control experiments: effect of tamoxifen or AAV-Cre on N-Akt tumor growth in control mice; type: in vivo, mouse; details: control mice with N-Akt tumors without floxed-gene deletion (C57BL/6, or Yap fl/fl;Taz fl/fl without SB-CreERT2)
Protocol: as §1
Adeno-associated virus serotype 8 (AAV8) expressing CRE recombinase under the hepatocyte specific promoter TBG was purchased from UPenn (AAV8.TBG.PI.Cre.rBG, catalog AV-8-PV1091). Mice received 5×10^11 GC of AAV8.TBG.PI.Cre.rBG diluted in 200 ul of 1× phosphate-buffered saline (PBS) by tail vein injection.
as §2

## C[C@H](CCC(=O)O)[C@H]1CC[C@H]2[C@@H]3[C@H](O)C[C@@H]4C[C@H](O)CC[C@]4(C)[C@H]3C[C@H](O)[C@]12C [cholic acid]
liver
  liver size increase: 30%

## C[C@H]1c2cccc(O)c2C(=O)C2=C(O)[C@]3(O)C(=O)C(C(N)=O)=C(O)[C@@H](N(C)C)[C@@H]3[C@@H](O)[C@@H]21 [doxycycline]
[1]; Apo>hYAP1SA mice, two weeks of doxycycline administration
  survival after tumor initiation: up to 14 weeks
[1]; treated Apo>hYAP1SA mice
  average survival longer than the control mice: 4 weeks
[1]; treated Apo>hYAP1SA mice, after 2 weeks of doxycycline
  mice with only a few small tumor remnants: 5/10
[1]; within 6 weeks of tumor initiation, when half of the control mice had died
  treated mice still alive: more than 80%
[2]
  reduction in tumor load: 98%

## CC/C(=C(\c1ccccc1)c1ccc(OCCN(C)C)cc1)c1ccccc1 [tamoxifen]
N-Akt tumors
  effect on tumor development, growth or total tumor volume: not affected
